The test system of one test is RGC-5 cells. Kind of test: Cellular viability of RGC-like cells challenged with rotenone (cellular ATP content). It counts as cell-based. The text has this: Mitochondrial impairment directly influences cellular survival. Especially cells and tissues that display high level of energy consumption, such as neurons are especially vulnerable. Consequently, these cells and tissues are likely to be the most responsive to a strategy that targets mitochondrial function. We addressed this possibility by assessing the viability of the retinal ganglion cell line RGC-5, challenged with the mitochondrial complex I inhibitor rotenone, in the absence or presence of compounds.
Experimental procedure: RGC-5 cells were cultured under ambient conditions (37 °C, 5% CO2, 90% humidity) in DMEM (1g/l glucose; 10% fetal bovine serum (FBS), Penicillin-Streptomycin-Glutamine (PSG)). RGC-5 cells will be seeded in DMEM (1g/l glucose; 2% FBS) into BD Falcon™ cell culture plates. Before rotenone- induced complex I inhibition, the cells were pre-treated with Compound IA or vehicle. For Compound IA co-treatment with rotenone, new compound was added together with rotenone-containing cell culture media. After the rotenone exposure, the media was exchanged and replaced by Hanks' BSS for the 1 day post-incubation. The post-treatment media contained Compound IA or vehicle only. As measure of cell viability, cellular ATP content was analyzed using luminescence from ATP-dependent enzymatic oxidation of luciferin by luciferase. RGC-5 cells were be washed with PBS and lysed in lysis buffer (4 mM EDTA, 0.2% Triton X-100) at room temperature. In 96-well plates, ATP measurement buffer (25 mM HEPES pH 7.25, 300 µM D-luciferin, 5 µg/ml firefly luciferase, 75 µM DTT, 6.25 mM MgCl2, 625 µM EDTA and 1 mg/ml BSA) was combined with lysate to start the reaction. Luminescence was quantified immediately using a multimode plate reader (Tecan M1000, Tecan iControl 1.6 software; Tecan Austria GmbH, Grödig, Austria). Effects on cell viability were defined as the percentage of compound-mediated change in cell viability relative to rotenone-induced reduction in cell viability. Data are presented as mean ± SEM. Paired Student's t-test was used to compare non-normalized data. Statistical significance was set at p≤0.05(*), p≤0.01(**) and p≤0.001(***).

Another test deals with C57BL/6J mice. In words: Mouse model of intravitreal rotenone injection, histopathology, second study with modified less invasive injection method. It counts as in vivo. The source says:
This mouse model is used to assess the therapeutic potential of compounds in eye disorders characterized by mitochondrial dysfunction such as LHON, DOA, macular degeneration, retinopathy, and complex I deficiency. It is a widely accepted in vivo model based on single-eye intravitreal injection of the mitochondrial complex I inhibitor rotenone in the adult mouse. Intravitreal injection of rotenone induces neurotoxicity through mitochondrial complex I dysfunction in the retina which is the main molecular dysfunction […]. […] Histological analysis includes quantitative measurement of the retinal thickness (whole retina and individual layers), RGC apoptosis and cell death, oxidative stress, glutamine synthetase expression, and gliosis. The non-injected eye is used as a within subject, i.e. intraindividual, control. Male wild-type C57BL/6J mice (7 weeks old, about 25 g body weight) are individually housed in Makrolon type II cages with standard bedding and free access to food and water under a regular 12-hours light-dark cycle (8 a.m. to 8 p.m.). […] The injection is performed over a period of 2 min and the needle is kept in place for an additional 3 min, after which it is gently removed. Sterile surgical glue (Histoacryl, BRAUN/Aesculap AG, Germany) is used to seal the site of injection and a sterile antimicrobial ophtalmic ointment (Neosporin, GlaxoSmithKline, UK) is applied to the injected eye to avoid any infection. […] The eye balls are removed, retinas are dissected, fixed for an additional 2 h at 4°C, incubated in PB 0.1 M and 30% sucrose overnight, frozen in optimal cutting temperature compound (O.C.T., Tissue-Tek, Miles Laboratories, Elkhart, IN, USA), sliced at 14 μm, and collected onto glass slides for immunostaining. Immunostaining is performed accordingly to conventional method using multiple primary antibodies. Fluorescent-conjugated secondary antibodies and DAPI are used for visualization under a fluorescence microscope. All procedures are performed in accordance with the Swiss regulation and under a license approved by the "Kantonales Veterinäramt Basel-Land". […] A modified, less invasive injection method was used to further minimize damage caused by the injection itself. […] At 400 mg/kg Compound IA, a clear significant protection was observed (269 μm; p = 0.03), whereas at 2000 mg/kg a strong protective trend was detected (258 μm; p = 0.06). […] Table 6 In Table 6, the histological data on 7 days post-injection is expressed as % of sham (DMSO) injected control ± SEM. […] The term IA 200 defines a treatment with Compound IA at a concentration of 200 mg/kg; […], IA 400 and IA 2000: define a treatment with Compound IA at 400 mg/kg and at 2000 mg/kg, respectively. Statistical significance relative to vehicle + rotenone group is expressed as p ≤ 0.05 (*). n designates the number of retinas per group.

The mark [1] stands for this setting: 200 mg/kg + rotenone, 7 days post-injection, ± SEM.
[2] abbreviates: 400 mg/kg + rotenone, 7 days post-injection, ± SEM.
The mark [3] stands for this setting: 2000 mg/kg + rotenone, 7 days post-injection, ± SEM.

Structures are written as SMILES. Where “and” joins values, the source holds several entries; their conditions need not be identical. Equal values may be shown once.

Take `COC1=C(OC)C(=O)C(CCCCCCCCCCO)=C(C)C1=O` [Compound IA, Idebenone]: the “cell viability, compound-mediated change relative to rotenone-induced reduction, mean” value with RGC-5 cells (1 day-preincubation, 100 nM) was 12.6%; with RGC-5 cells (2 day-preincubation, 1 nM), 1.0%; with RGC-5 cells (2 day-preincubation, 10 nM) it was 7% and 7.3%; in the test with RGC-5 cells (2 day-preincubation, 100 nM), 35% and 34.9%; in the test on RGC-5 cells (2 day-preincubation, 1000 nM), 58% and 58.4%. For the same compound, the “cell viability, compound-mediated change relative to rotenone-induced reduction, mean (Fig. 2)” value with RGC-5 cells (1 day-preincubation, 1 µM) is recorded as “highly significant”. Also, the “concentrations at which viability of RGC-5 cells was significantly rescued” value in the test on RGC-5 cells (rotenone challenge, dose dependent) is recorded as not below 10 nM. For the same compound, the Gliosis in the test with C57BL/6J mice (setting [1]) is 124.46 ± 7.37 * (n=7) % of sham (DMSO) injected control; with C57BL/6J mice (setting [2]), 125.04 ±9.12 * (n=6) % of sham (DMSO) injected control; in the test on C57BL/6J mice (setting [3]) it was 129.86 ± 7.32 * (n=7) % of sham (DMSO) injected control. The RGC number in the test with C57BL/6J mice (setting [1]) is 62.53 ± 9.13 (n=7) % of sham (DMSO) injected control; in the test with C57BL/6J mice (setting [2]) it was 63.68 ± 5.98 * (n=6) % of sham (DMSO) injected control; in the test with C57BL/6J mice (setting [3]), 64.44 ± 4.56 * (n=8) % of sham (DMSO) injected control. For the same compound, the Retinal thickness in the test on C57BL/6J mice (setting [1]) is 91.17 ± 5.72 (n=8) % of sham (DMSO) injected control; with C57BL/6J mice (200 mg/kg, 7 days after rotenone-injection, sham about 300 µm, rotenone 220 µm), 272 µm; in the test on C57BL/6J mice (setting [2]), 89.93 ± 2.16 * (n=6) % of sham (DMSO) injected control; with C57BL/6J mice (400 mg/kg, 7 days after rotenone-injection, sham about 300 µm, rotenone 220 µm) it was 269 µm; in the test on C57BL/6J mice (setting [3]) it was 86.58 ± 2.51 (n=8) % of sham (DMSO) injected control; with C57BL/6J mice (2000 mg/kg, 7 days after rotenone-injection, sham about 300 µm, rotenone 220 µm) it was 258 µm.

These data come from patent EP2605769B1, “BENZOQUINONE DERIVATIVES FOR THE TREATMENT OF MITCHONDRIAL EYE DISEASES” (Santhera Pharmaceuticals (Schweiz) AG, priority 2010, dated 2012).
